This passage reports IC50 results from ChEMBL document CHEMBL5729404, “Heterocyclic RIP1 kinase inhibitors” (2022).

This assay has as its target T1, Receptor-interacting serine/threonine-protein kinase 1 (Homo sapiens, UniProt Q13546).
T1 sequence (Q13546 whole entry): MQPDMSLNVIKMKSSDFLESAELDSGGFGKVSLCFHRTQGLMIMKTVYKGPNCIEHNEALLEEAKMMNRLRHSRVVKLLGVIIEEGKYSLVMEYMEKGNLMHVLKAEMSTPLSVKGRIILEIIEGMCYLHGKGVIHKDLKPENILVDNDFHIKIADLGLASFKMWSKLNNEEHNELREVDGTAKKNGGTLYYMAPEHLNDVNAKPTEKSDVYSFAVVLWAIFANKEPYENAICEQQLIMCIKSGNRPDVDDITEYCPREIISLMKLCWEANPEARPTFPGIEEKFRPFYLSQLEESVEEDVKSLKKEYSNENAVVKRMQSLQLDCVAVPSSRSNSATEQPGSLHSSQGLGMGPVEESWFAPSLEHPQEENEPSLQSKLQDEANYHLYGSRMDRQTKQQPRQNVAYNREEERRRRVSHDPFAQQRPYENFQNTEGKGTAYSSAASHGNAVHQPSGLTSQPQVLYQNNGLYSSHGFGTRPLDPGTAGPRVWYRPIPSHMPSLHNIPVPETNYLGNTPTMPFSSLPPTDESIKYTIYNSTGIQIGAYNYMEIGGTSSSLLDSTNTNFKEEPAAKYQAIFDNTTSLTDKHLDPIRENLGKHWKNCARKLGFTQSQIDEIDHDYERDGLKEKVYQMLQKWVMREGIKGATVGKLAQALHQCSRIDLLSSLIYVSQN
The assay is described as follows: Adding 5 μl of ADP-Glo™ terminated the reaction.

Each structure is given as a SMILES string.

In the case of `CN1C(=O)[C@@H](NC(=O)n2cc(Cc3cccc(C(F)(F)F)n3)cn2)COc2ccc(Br)cc21`, the IC50 worked out at 168 nM.
`CN1C(=O)[C@@H](NC(=O)n2cc(Cc3cccc(F)n3)cn2)COc2ccc(Br)cc21` registered an IC50 of 21.7 nM.
The same measure for `CN1C(=O)[C@@H](NC(=O)n2cc(Cc3ccc(F)nc3)cn2)COc2ccc(Br)cc21`: 40.3 nM.
For `CN1C(=O)[C@@H](NC(=O)n2cc(Cc3ccccn3)cn2)COc2ccc(Br)cc21`, the IC50 is 65.2 nM.
Turning to `CN1C(=O)[C@@H](NC(=O)n2cc(Cc3cccnn3)cn2)COc2ccc(Br)cc21`, the midpoint of inhibition, the IC50, lay at 830 nM.
Regarding `Cc1cccc(Cc2cnn(C(=O)N[C@H]3COc4ccc(Br)cc4N(C)C3=O)c2)n1`, the IC50 amounted to 104 nM.
The molecule `CN1C(=O)[C@@H](NC(=O)n2cc(Cc3ccncc3)cn2)COc2ccc(Br)cc21` showed an IC50 of 102 nM.
The same measure for `CN1C(=O)[C@@H](NC(=O)n2cc(Cc3cccnc3)cn2)COc2ccc(Br)cc21`: 8.3 nM.
